Measured values published in US11053204B2, “Pyrimidinyloxy benzene derivatives as herbicides” (FMC Corporation, priority 2015, dated 2021).

Legend:
Format in all cases: in vivo
[1] = system: giant foxtail (Setaria faberii); test: Test A preemergence, visual injury rating
Outline: (§1)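 Injury scores run from 0, no effect, to 100, complete control, judged by eye against untreated plants roughly 10 days after treatment. Chemicals carried a surfactant in a non-phytotoxic solvent and went onto loam–sand soil preemergence or onto one- to two-leaf seedlings postemergence.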

[2] = system: barnyardgrass (Echinochloa crus-galli); test: Test A preemergence, visual injury rating
Outline: as §1

[3] = system: ragweed (common ragweed, Ambrosia elatior); test: Test A preemergence, visual injury rating
Outline: as §1

[4] = system: pigweed (Amaranthus retroflexus); test: Test A preemergence, visual injury rating
Outline: as §1

kochia (Kochia scoparia) [5] = test: Test A preemergence, visual injury rating
Outline: as §1

[6] = system: Italian ryegrass (Lolium multiflorum); test: Test A preemergence, visual injury rating
Outline: as §1

[7] = system: wheat (Triticum aestivum); test: Test A postemergence, visual injury rating; settings: 0 is no effect, 100 is complete control; for Wheat plant response rating: 0 to 100 scale, approximately 10 days
Outline: as §1

[8] = system: giant foxtail (Setaria faberii); test: Test A postemergence, visual injury rating; settings: 0 is no effect, 100 is complete control; for Foxtail, Giant plant response rating: 0 to 100 scale, approximately 10 days
Outline: as §1

[9] = system: galium (catchweed bedstraw, Galium aparine); test: Test A postemergence, visual injury rating; settings: 0 is no effect, 100 is complete control; for Galium plant response rating: 0 to 100 scale, approximately 10 days
Outline: as §1

corn (Zea mays) = test: Test A postemergence, visual injury rating; settings: 0 is no effect, 100 is complete control; for Corn plant response rating: 0 to 100 scale, approximately 10 days
Outline: as §1

[10] = system: barnyardgrass (Echinochloa crus-galli); test: Test A postemergence, visual injury rating; settings: 0 is no effect, 100 is complete control; for Barnyardgrass plant response rating: 0 to 100 scale, approximately 10 days
Outline: as §1

[11] = system: blackgrass (Alopecurus myosuroides); test: Test A postemergence, visual injury rating; settings: 0 is no effect, 100 is complete control; for Blackgrass plant response rating: 0 to 100 scale, approximately 10 days
Outline: as §1

[12] = system: ragweed (common ragweed, Ambrosia elatior); test: Test A postemergence, visual injury rating; settings: 0 is no effect, 100 is complete control; for Ragweed plant response rating: 0 to 100 scale, approximately 10 days
Outline: as §1

[13] = system: pigweed (Amaranthus retroflexus); test: Test A postemergence, visual injury rating; settings: 0 is no effect, 100 is complete control; for Pigweed plant response rating: 0 to 100 scale, approximately 10 days
Outline: as §1

kochia (Kochia scoparia) [14] = test: Test A postemergence, visual injury rating; settings: 0 is no effect, 100 is complete control; for Kochia plant response rating: 0 to 100 scale, approximately 10 days
Outline: as §1

[15] = system: Italian ryegrass (Lolium multiflorum); test: Test A postemergence, visual injury rating; settings: 0 is no effect, 100 is complete control; for Ryegrass, Italian plant response rating: 0 to 100 scale, approximately 10 days
Outline: as §1

rice (Oryza sativa) = test: Test B flooded paddy test, plant response rating; settings: 250 g ai/ha; Flood; scale of 0 to 100 where 0 is no effect and 100 is complete control; 13 to 15 days
Outline: (§2)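 Ratings were visual and made relative to untreated controls after 13 to 15 greenhouse days.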

[16] = system: ducksalad (Heteranthera limosa); test: Test B flooded paddy test, plant response rating; settings: 250 g ai/ha; Flood; scale of 0 to 100 where 0 is no effect and 100 is complete control; 13 to 15 days
Outline: as §2

[17] = system: barnyardgrass (Echinochloa crus-galli); test: Test B flooded paddy test, plant response rating; settings: 250 g ai/ha; Flood; scale of 0 to 100 where 0 is no effect and 100 is complete control; 13 to 15 days
Outline: as §2

[18] = system: sedge, umbrella (small-flower umbrella sedge, Cyperus difformis); test: Test B flooded paddy test, plant response rating; settings: 250 g ai/ha; Flood; scale of 0 to 100 where 0 is no effect and 100 is complete control; 13 to 15 days
Outline: as §2

[19] = 31 g ai/ha, 0 to 100 scale, 0 no effect, 100 complete control
[20] = 125 g ai/ha, 0 to 100 scale (0 no effect, 100 complete control)
[21] = 500 g ai/ha, 0 to 100 scale (0 no effect, 100 complete control)

O=C(OCCC(F)(F)F)c1c(OCC(F)(F)F)cccc1Oc1ncc(Cl)cn1 [Compound 117]
100: Galium plant response rating ([9]; 125 g ai/ha)
50: Kochia plant response rating (kochia (Kochia scoparia) [14]; 125 g ai/ha)
60: Galium plant response rating ([9]; 31 g ai/ha) | Plant response rating, Sedge, Umbrella [18]
30: Plant response rating, Pigweed [4, 20] | Pigweed plant response rating ([13]; 31 g ai/ha)
10: Foxtail, Giant plant response rating ([8]; 125 g ai/ha) | Corn plant response rating (corn (Zea mays); 31 g ai/ha) | Corn plant response rating (corn (Zea mays); 125 g ai/ha) | Barnyardgrass plant response rating ([10]; 125 g ai/ha) | Blackgrass plant response rating ([11]; 125 g ai/ha)
20: Plant response rating, Foxtail, Giant [1, 20] | Ragweed plant response rating ([12]; 125 g ai/ha) | Kochia plant response rating (kochia (Kochia scoparia) [14]; 31 g ai/ha) | Plant response rating, Ducksalad [16]
0: Plant response rating, Foxtail, Giant [1, 19] | Plant response rating, Barnyardgrass [2, 19] | Plant response rating, Barnyardgrass [2, 20] | Plant response rating, Ragweed [3, 19] | Plant response rating, Ragweed [3, 20] | Plant response rating, Pigweed [4, 19] | Plant response rating, Kochia (kochia (Kochia scoparia) [5]; [19]) | Plant response rating, Kochia (kochia (Kochia scoparia) [5]; [20]) | Plant response rating, Ryegrass, Italian [6, 19] | Plant response rating, Ryegrass, Italian [6, 20] | Wheat plant response rating ([7]; 31 g ai/ha) | Wheat plant response rating ([7]; 125 g ai/ha) | Foxtail, Giant plant response rating ([8]; 31 g ai/ha) | Barnyardgrass plant response rating ([10]; 31 g ai/ha) | Blackgrass plant response rating ([11]; 31 g ai/ha) | Ragweed plant response rating ([12]; 31 g ai/ha) | Ryegrass, Italian plant response rating ([15]; 31 g ai/ha) | Ryegrass, Italian plant response rating ([15]; 125 g ai/ha) | Plant response rating, Rice (rice (Oryza sativa)) | Plant response rating, Barnyardgrass [17]
70: Pigweed plant response rating ([13]; 125 g ai/ha)

O=C(OCC1CCCC1)c1c(Br)cccc1Oc1ncc(Cl)cn1 [Compound 6]
50: Foxtail, Giant plant response rating (0 to 100 scale) ([8]; 500 g ai/ha)
30: Blackgrass plant response rating (0 to 100 scale) ([11]; 500 g ai/ha) | Ragweed plant response rating (0 to 100 scale) ([12]; 500 g ai/ha)
90: Galium plant response rating (0 to 100 scale) ([9]; 500 g ai/ha) | Pigweed plant response rating (0 to 100 scale) ([13]; 500 g ai/ha) | Kochia plant response rating (0 to 100 scale) (kochia (Kochia scoparia) [14]; 500 g ai/ha)
40: Barnyardgrass plant response rating (0 to 100 scale) ([10]; 500 g ai/ha) | Kochia plant response rating (0 to 100 scale) (kochia (Kochia scoparia) [14]; 125 g ai/ha) | Ryegrass, Italian plant response rating (0 to 100 scale) ([15]; 500 g ai/ha)
100: Foxtail, Giant plant response rating [1, 21]
0: Ragweed plant response rating [3, 20] | Ragweed plant response rating [3, 21] | Kochia plant response rating (kochia (Kochia scoparia) [5]; [20]) | Kochia plant response rating (kochia (Kochia scoparia) [5]; [21]) | Ryegrass, Italian plant response rating [6, 20] | Wheat plant response rating (0 to 100 scale) ([7]; 125 g ai/ha) | Corn plant response rating (0 to 100 scale) (corn (Zea mays); 125 g ai/ha) | Ryegrass, Italian plant response rating (0 to 100 scale) ([15]; 125 g ai/ha) | Plant response rating, Rice (rice (Oryza sativa)) | Plant response rating, Ducksalad [16] | Plant response rating, Barnyardgrass [17] | Plant response rating, Sedge, Umbrella [18]
10: Barnyardgrass plant response rating [2, 20] | Pigweed plant response rating [4, 20] | Wheat plant response rating (0 to 100 scale) ([7]; 500 g ai/ha) | Foxtail, Giant plant response rating (0 to 100 scale) ([8]; 125 g ai/ha) | Corn plant response rating (0 to 100 scale) (corn (Zea mays); 500 g ai/ha) | Barnyardgrass plant response rating (0 to 100 scale) ([10]; 125 g ai/ha) | Blackgrass plant response rating (0 to 100 scale) ([11]; 125 g ai/ha) | Ragweed plant response rating (0 to 100 scale) ([12]; 125 g ai/ha)
70: Pigweed plant response rating [4, 21] | Ryegrass, Italian plant response rating [6, 21]
60: Foxtail, Giant plant response rating [1, 20] | Barnyardgrass plant response rating [2, 21] | Galium plant response rating (0 to 100 scale) ([9]; 125 g ai/ha) | Pigweed plant response rating (0 to 100 scale) ([13]; 125 g ai/ha)
